These results are taken from ChEMBL document CHEMBL1155822, “Inhibition of acetylcholinesterase, beta-amyloid aggregation, and NMDA receptors in Alzheimer's disease: a promising direction for the multi-target-directed ligands gold rush” (J Med Chem, 2008).

One may read the IC50 as the concentration that inhibits the measured activity by half. High values mean weaker potency, low ones greater potency.

Each structure is given as a SMILES string.

The test system of assay [1] is SH-SY5Y. As to the kind of experiment: Antioxidant activity against tert-butyl hydroperoxide-induced ROS evoked cell death in human SH-SY5Y cells. It is filed as functional, cell-based.
The target of assay [2] is Cholinesterase (Homo sapiens, UniProt P06276). The assay can be described thus: Inhibition of human serum BChE by Ellman's method.
Assay [3] deals with Acetylcholinesterase (Homo sapiens, UniProt P22303).
Description: Inhibition of human recombinant AChE by Ellman's method
Assay [4] deals with Glutamate NMDA receptor; GRIN1/GRIN2B (Homo sapiens, UniProt Q05586+Q13224).
Sequence of Glutamate NMDA receptor; GRIN1/GRIN2B (Q13224 whole entry, other chains not shown): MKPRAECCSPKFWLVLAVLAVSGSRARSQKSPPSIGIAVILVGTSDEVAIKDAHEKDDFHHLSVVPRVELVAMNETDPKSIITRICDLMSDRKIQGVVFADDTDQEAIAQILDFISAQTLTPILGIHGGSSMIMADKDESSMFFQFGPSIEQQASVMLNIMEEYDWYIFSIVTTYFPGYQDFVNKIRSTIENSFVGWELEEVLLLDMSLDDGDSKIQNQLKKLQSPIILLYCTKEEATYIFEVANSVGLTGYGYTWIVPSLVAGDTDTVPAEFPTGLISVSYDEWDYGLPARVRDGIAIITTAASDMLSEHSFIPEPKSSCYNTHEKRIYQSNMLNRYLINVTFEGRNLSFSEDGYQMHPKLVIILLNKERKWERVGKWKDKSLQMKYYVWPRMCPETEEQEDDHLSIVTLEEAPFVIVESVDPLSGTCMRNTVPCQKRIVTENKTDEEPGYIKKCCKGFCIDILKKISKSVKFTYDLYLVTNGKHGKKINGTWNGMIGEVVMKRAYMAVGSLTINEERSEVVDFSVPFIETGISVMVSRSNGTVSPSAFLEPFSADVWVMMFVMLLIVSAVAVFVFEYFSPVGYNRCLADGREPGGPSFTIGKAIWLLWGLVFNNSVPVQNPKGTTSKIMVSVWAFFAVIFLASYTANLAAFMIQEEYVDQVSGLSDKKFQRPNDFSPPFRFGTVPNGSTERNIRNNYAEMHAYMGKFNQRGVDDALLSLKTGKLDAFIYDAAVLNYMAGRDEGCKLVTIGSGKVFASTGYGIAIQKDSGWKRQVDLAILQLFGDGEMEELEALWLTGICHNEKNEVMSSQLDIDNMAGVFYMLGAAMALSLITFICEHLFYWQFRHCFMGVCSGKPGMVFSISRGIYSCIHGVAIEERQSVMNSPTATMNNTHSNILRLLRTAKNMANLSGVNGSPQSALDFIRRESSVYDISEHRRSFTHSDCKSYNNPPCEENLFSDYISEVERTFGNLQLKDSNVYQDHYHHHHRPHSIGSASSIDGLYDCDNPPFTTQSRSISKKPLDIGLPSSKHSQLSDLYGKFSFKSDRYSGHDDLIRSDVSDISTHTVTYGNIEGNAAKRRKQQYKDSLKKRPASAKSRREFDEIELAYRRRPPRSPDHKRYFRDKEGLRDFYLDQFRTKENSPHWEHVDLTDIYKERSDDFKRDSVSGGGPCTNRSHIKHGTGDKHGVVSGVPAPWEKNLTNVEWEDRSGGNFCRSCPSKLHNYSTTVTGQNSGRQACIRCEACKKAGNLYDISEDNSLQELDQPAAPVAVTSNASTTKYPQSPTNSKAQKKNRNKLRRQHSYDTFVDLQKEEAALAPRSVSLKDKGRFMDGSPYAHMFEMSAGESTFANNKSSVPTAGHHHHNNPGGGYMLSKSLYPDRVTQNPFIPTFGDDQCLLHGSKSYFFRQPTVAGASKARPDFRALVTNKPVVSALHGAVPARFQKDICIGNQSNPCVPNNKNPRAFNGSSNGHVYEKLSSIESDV
Description: Inhibition of NMDA NR1/NR2B receptor expressed in xenopus oocytes assessed as inhibition of NMDA and glycine-induced current response by two-electrode voltage clamp assay

Sequence of Cholinesterase (P06276 whole entry): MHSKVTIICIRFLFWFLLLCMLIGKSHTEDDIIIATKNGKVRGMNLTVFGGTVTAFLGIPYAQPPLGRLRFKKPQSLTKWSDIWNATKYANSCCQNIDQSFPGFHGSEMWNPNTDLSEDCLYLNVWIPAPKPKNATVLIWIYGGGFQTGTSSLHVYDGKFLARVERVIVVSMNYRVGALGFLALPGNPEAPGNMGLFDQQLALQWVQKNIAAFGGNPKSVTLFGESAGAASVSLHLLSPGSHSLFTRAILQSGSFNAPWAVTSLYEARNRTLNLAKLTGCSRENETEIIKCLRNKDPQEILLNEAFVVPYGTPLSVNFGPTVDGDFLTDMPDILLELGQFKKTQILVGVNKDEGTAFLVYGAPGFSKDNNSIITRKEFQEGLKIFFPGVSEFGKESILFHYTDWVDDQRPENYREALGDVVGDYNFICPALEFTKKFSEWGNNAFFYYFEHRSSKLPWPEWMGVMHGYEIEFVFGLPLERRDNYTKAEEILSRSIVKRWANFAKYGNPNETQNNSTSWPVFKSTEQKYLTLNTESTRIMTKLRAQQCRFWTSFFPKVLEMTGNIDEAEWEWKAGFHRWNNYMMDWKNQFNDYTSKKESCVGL
Sequence of Acetylcholinesterase (P22303 whole entry): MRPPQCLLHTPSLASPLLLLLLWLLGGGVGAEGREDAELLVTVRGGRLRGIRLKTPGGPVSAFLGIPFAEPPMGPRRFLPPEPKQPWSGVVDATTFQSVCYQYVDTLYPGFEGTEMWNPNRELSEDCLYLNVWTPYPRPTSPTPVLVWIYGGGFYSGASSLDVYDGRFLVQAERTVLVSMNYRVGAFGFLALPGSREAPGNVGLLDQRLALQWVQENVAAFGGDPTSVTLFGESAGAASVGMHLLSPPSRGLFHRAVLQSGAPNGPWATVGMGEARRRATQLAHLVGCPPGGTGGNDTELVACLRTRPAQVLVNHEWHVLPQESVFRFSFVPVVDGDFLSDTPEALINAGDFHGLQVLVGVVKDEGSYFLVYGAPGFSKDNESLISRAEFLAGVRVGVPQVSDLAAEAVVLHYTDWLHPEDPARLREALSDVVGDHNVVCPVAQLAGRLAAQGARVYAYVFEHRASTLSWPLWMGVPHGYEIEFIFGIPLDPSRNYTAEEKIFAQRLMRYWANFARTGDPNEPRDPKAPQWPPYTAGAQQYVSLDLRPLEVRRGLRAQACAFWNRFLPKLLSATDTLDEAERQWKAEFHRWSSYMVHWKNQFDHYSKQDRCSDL

In the case of `Oc1cccc2[nH]c3ccccc3c12`, in assay [1], the IC50 came to 70 nM.

On to `Clc1ccc2c(NCCCNCCCCCOc3cccc4[nH]c5ccccc5c34)c3c(nc2c1)CCCC3`, for which the IC50 in assay [2] stood at 189 nM; in assay [3], 1.54 nM; in assay [4], 18200 nM.

Regarding `Clc1ccc2c(NCCCNCCCCCCOc3cccc4[nH]c5ccccc5c34)c3c(nc2c1)CCCC3`, the IC50 in assay [2] was determined as 137 nM; in assay [3] it was 2.57 nM; in assay [4], 13000 nM.

Regarding `Clc1ccc2c(NCCCNCCCCOc3cccc4[nH]c5ccccc5c34)c3c(nc2c1)CCCC3`, the values for the IC50 in assay [2], in assay [3] and in assay [4] were 211 nM, 1.65 nM and 30300 nM, respectively.

Regarding `Clc1ccc2c(NCCCNCCCOc3cccc4[nH]c5ccccc5c34)c3c(nc2c1)CCCC3` [CARBACRINE], the half-inhibitory concentration (IC50) in assay [2] is 296 nM; in assay [1] it was 23000 nM; in assay [3], 2.15 nM; in assay [4] it was 740 nM.

Consider `Cc1c(C)c2c(c(C)c1O)CCC(C)(C(=O)O)O2` (stereo not given) [TROLOX], for which the midpoint of inhibition in assay [1], the IC50, lay at 49600 nM.
